# Measurements: paper PMC12491383, “Organ and tumour dosimetry of ^177Lu-rhPSMA-10.1, a novel PSMA-targeted therapy: results from a Phase I trial” (European Journal of Nuclear Medicine and Molecular Imaging, 2025)
# Values joined by “and” are separate entries in the source; they are usually repeats but may differ in a detail not shown here. Equal entries are not always repeated.
# Assay: SPECT/CT image-based normal organ dosimetry (MIRD S-value methodology), Phase I BET-PSMA-121
# Type: in vivo, human
# Conditions: for Cumulative image-based absorbed dose, bone marrow, range across patients / Cumulative image-based absorbed dose, salivary glands, range across patients: all cycles; for Cumulative Absorbed Dose, Bone Marrow, % of dose limit: limit 2 Gy; for Cumulative Absorbed Dose, Kidney, % of dose limit: limit 23 Gy; for Cumulative Absorbed Dose, Salivary Glands, % of dose limit: limit 24 Gy
# Description: Figure 1 provides a schematic representation of the study. Enrolled patients were sequentially entered into one of the two cohorts. Cohort A received 5.55 GBq (150 mCi) of ^177Lu-rhPSMA-10.1 and Cohort B received 7.40 GBq (200 mCi) of ^177Lu-rhPSMA-10.1. Subsequent doses were delivered at 6-week intervals subject to individual tolerability and safety assessments. Each patient received between one and three cycles, with a maximum of three cycles of treatment being permitted in this initial part of the study. All administrations of ^177Lu-rhPSMA-10.1 were performed using intravenous injection under the supervision of the treating physician.
# Multi-bed single-photon emission computed tomography (SPECT)/CT was conducted at 3-, 24-, 48- and 168-hours post-^177Lu-rhPSMA-10.1 administration in each treatment cycle for the estimation of organ and tumour absorbed doses in each patient. Prior to commencement of the study, each investigating site was required to complete a calibration of their dose calibrator and SPECT/CT system to ensure harmonised quantification of the imaging data. Quantitative reconstructions and all dosimetry analyses were carried out centrally by an independent dosimetry vendor (Radiopharmaceutical Imaging and Dosimetry LLC, Baltimore, MD).
# The specific absorbed doses (Gy/GBq) in normal organs and tumours were determined using the Medical Internal Radiation Dose (MIRD) Committee S-value methodology. Individual patient organ masses, determined via CT delineation, were scaled to reflect deviations from reference phantom geometry. Cumulative organ absorbed doses (Gy) were calculated across all treatment cycles. Further details on dosimetry methodology are provided in the supplemental materials and have been reported in accordance with EANM guidance.
# All patients underwent multi-bed single-photon emission computed tomography (SPECT)/CT at 3-, 24-, 48- and 168-hours post-^177Lu-rhPSMA-10.1 administration during each treatment cycle. The acquisition parameters are shown in Supplemental Table S1. All images were centrally reconstructed in 3D-RD-S using the iterative Ordered Subsets Expectation-Maximization (OSEM) algorithm with 40 iterations and 5 subsets. Attenuation, scatter, and the Collimator-Detector Response Function (CDRF) were modelled during the iterative process using a rotation-based projector. CT-based attenuation compensation was performed using the attenuation map generated from the CT image. Scatter was modelled using the Effective Source Scatter Estimation (ESSE) method.
# Reconstructed images were converted to activity concentration units (Becquerel (Bq)/millilitre (mL)) using the calibration factor generated for each individual imaging system. Organ masses were individually determined using CT-based delineations and longitudinal SPECT activity statistics were based on these same delineations.
# Time integrated activity coefficients (TIACs) were calculated for each target tissue. This was done by fitting each time–activity curve with an exponential function (mono, bi, or exponential uptake and washout) and integrating from time 0 to infinity. The simpler function was preferred provided the fit was adequate ([…]).
# The TIAC in the bone marrow was derived from contours drawn around the marrow inside lumbar vertebrae L3–L5. Where lesions were present in the lumbar area, contours were drawn around either the femur heads, scapula or sternum depending on the anatomical coverage. The TIAC was then divided by the marrow mass in this region to give the TIAC concentration. The total bone marrow TIAC was be obtained as the product of this concentration and the standard International Commission on Radiological Protection (ICRP) bone marrow mass.
# The S-value methodology was used to estimate the target tissue dose. […]
# [1] = Cohort A (5.55 GBq/cycle), 3 patients
# [2] = Cohort B (7.40 GBq/cycle), 10 patients
# [3] = Patient 1, Cohort A, 3 cycles, 16.20 GBq cumulative
# [4] = Patient 2, Cohort A, 2 cycles, 11.57 GBq cumulative
# [5] = Patient 3, Cohort A, 3 cycles, 16.58 GBq cumulative
# [6] = Patient 4, Cohort B, 3 cycles, 22.94 GBq cumulative
structure (smiles),measurement,setting,value
CC(C)(C)[Si](F)(c1ccc(C(=O)NC[C@@H](NC(=O)CN2CCN(CC(=O)[O-])CCN(CC(=O)[O-])CCN(CC(=O)[O-])CC2)C(=O)N[C@H](CCCCNC(=O)CCC(=O)NCCC[C@@H](NC(=O)CC[C@H](NC(=O)N[C@@H](CCC(=O)O)C(=O)O)C(=O)O)C(=O)O)C(=O)O)cc1)C(C)(C)C.[177Lu+3] [^177Lu-rhPSMA-10.1],"Mean (SD) Absorbed Dose, adrenals",All Cycles,0.010 (0.018) Gy/GBq
same,"Mean (SD) Absorbed Dose, bladder wall",All Cycles,0.018 (0.010) Gy/GBq
same,"Mean (SD) Absorbed Dose, bone marrow (image-based)",All Cycles,0.011 Gy/GBq and 0.011 (0.020) Gy/GBq
same,"Mean (SD) Absorbed Dose, brain",All Cycles,0.003 (0.004) Gy/GBq
same,"Mean (SD) Absorbed Dose, gall bladder wall",All Cycles,0.004 (0.002) Gy/GBq
same,"Mean (SD) Absorbed Dose, heart",All Cycles,0.014 (0.003) Gy/GBq
same,"Mean (SD) Absorbed Dose, intestine",All Cycles,0.002 (0.001) Gy/GBq
same,"Mean (SD) Absorbed Dose, kidneys",All Cycles,0.297 (0.098) Gy/GBq
same,"Mean (SD) Absorbed Dose, lacrimal glands",All Cycles,0.611 (0.329) Gy/GBq
same,"Mean (SD) Absorbed Dose, liver",All Cycles,0.035 (0.018) Gy/GBq
same,"Mean (SD) Absorbed Dose, lungs",All Cycles,0.049 (0.055) Gy/GBq
same,"Mean (SD) Absorbed Dose, pancreas",All Cycles,0.002 (0.001) Gy/GBq
same,"Mean (SD) Absorbed Dose, prostate",All Cycles,0.003 (0.002) Gy/GBq
same,"Mean (SD) Absorbed Dose, salivary glands",All Cycles,0.134 (0.077) Gy/GBq
same,"Mean (SD) Absorbed Dose, spleen",All Cycles,0.034 (0.019) Gy/GBq
same,"Mean (SD) Absorbed Dose, stomach wall",All Cycles,0.004 (0.003) Gy/GBq
same,"Mean (SD) Absorbed Dose, ureters",All Cycles,0.002 (0.001) Gy/GBq
same,"Cumulative image-based absorbed dose, bone marrow, range across patients",[1],0.14–0.87 Gy
same,"Cumulative image-based absorbed dose, salivary glands, range across patients",[1],1.25–5.53 Gy
same,"Cumulative image-based absorbed dose, bone marrow, range across patients",[2],0.03–0.42 Gy
same,"Cumulative image-based absorbed dose, salivary glands, range across patients",[2],0.79–3.40 Gy
same,"Mean (SD) Absorbed Dose, adrenals","Cycle 1, 13 patients",0.007 (0.002) Gy/GBq
same,"Mean (SD) Absorbed Dose, bladder wall","Cycle 1, 13 patients",0.018 (0.013) Gy/GBq
same,"Mean (SD) Absorbed Dose, bone marrow (image-based)","Cycle 1, 13 patients",0.011 (0.010) Gy/GBq
same,"Mean (SD) Absorbed Dose, brain","Cycle 1, 13 patients",0.002 (0.001) Gy/GBq
same,"Mean (SD) Absorbed Dose, gall bladder wall","Cycle 1, 13 patients",0.004 (0.002) Gy/GBq
same,"Mean (SD) Absorbed Dose, heart","Cycle 1, 13 patients",0.013 (0.004) Gy/GBq
same,"Mean (SD) Absorbed Dose, intestine","Cycle 1, 13 patients",0.002 (0.001) Gy/GBq
same,"Mean (SD) Absorbed Dose, kidneys","Cycle 1, 13 patients",0.266 Gy/GBq and 0.27 Gy/GBq and 0.266 (0.075) Gy/GBq
same,"Mean (SD) Absorbed Dose, lacrimal glands","Cycle 1, 13 patients",0.568 (0.348) Gy/GBq
same,"Mean (SD) Absorbed Dose, liver","Cycle 1, 13 patients",0.034 (0.021) Gy/GBq
same,"Mean (SD) Absorbed Dose, lungs","Cycle 1, 13 patients",0.058 (0.072) Gy/GBq
same,"Mean (SD) Absorbed Dose, pancreas","Cycle 1, 13 patients",0.002 (0.001) Gy/GBq
same,"Mean (SD) Absorbed Dose, prostate","Cycle 1, 13 patients",0.003 (0.002) Gy/GBq
same,"Mean (SD) Absorbed Dose, salivary glands","Cycle 1, 13 patients",0.130 Gy/GBq and 0.13 Gy/GBq and 0.130 (0.068) Gy/GBq
same,"Mean (SD) Absorbed Dose, spleen","Cycle 1, 13 patients",0.034 (0.023) Gy/GBq
same,"Mean (SD) Absorbed Dose, stomach wall","Cycle 1, 13 patients",0.005 (0.005) Gy/GBq
same,"Mean (SD) Absorbed Dose, ureters","Cycle 1, 13 patients",0.002 (0.001) Gy/GBq
same,"Cumulative Absorbed Dose, Bone Marrow",[3],0.14 Gy
same,"Cumulative Absorbed Dose, Kidney",[3],8.20 Gy
same,"Cumulative Absorbed Dose, Salivary Glands",[3],5.53 Gy
same,"Cumulative Absorbed Dose, Bone Marrow, % of dose limit",[3],7.0%
same,"Cumulative Absorbed Dose, Kidney, % of dose limit",[3],36%
same,"Cumulative Absorbed Dose, Salivary Glands, % of dose limit",[3],23%
same,"Cumulative Absorbed Dose, Bone Marrow",[4],0.14 Gy
same,"Cumulative Absorbed Dose, Kidney",[4],5.86 Gy
same,"Cumulative Absorbed Dose, Salivary Glands",[4],1.25 Gy
same,"Cumulative Absorbed Dose, Bone Marrow, % of dose limit",[4],7.0%
same,"Cumulative Absorbed Dose, Kidney, % of dose limit",[4],25%
same,"Cumulative Absorbed Dose, Salivary Glands, % of dose limit",[4],5.2%
same,"Cumulative Absorbed Dose, Bone Marrow",[5],0.87 Gy
same,"Cumulative Absorbed Dose, Kidney",[5],6.15 Gy
same,"Cumulative Absorbed Dose, Salivary Glands",[5],2.96 Gy
same,"Cumulative Absorbed Dose, Bone Marrow, % of dose limit",[5],44%
same,"Cumulative Absorbed Dose, Kidney, % of dose limit",[5],27%
same,"Cumulative Absorbed Dose, Salivary Glands, % of dose limit",[5],12%
same,"Cumulative Absorbed Dose, Bone Marrow",[6],0.13 Gy
same,"Cumulative Absorbed Dose, Kidney",[6],8.33 Gy
same,"Cumulative Absorbed Dose, Salivary Glands",[6],2.87 Gy
